Molecular target: WT HIV-1 protease (Human immunodeficiency virus type 1 group M subtype B (isolate HXB2) (HIV-1), UniProt P04585)
Assay: Assay for inhibition of microbial expressed HIV protease (Procedure A, peptide substrate, HPLC fluorescence detection)
Type: biochemical
Conditions: WT HIV-1 protease 10 pM, substrate 400 micromolar, pH 5.5, 30 min preincubation, 1 hour at 30° C.; read-out: Enzyme inhibition IC50
Procedure, shortened: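 E. coli-expressed enzyme preincubated 30 min at room temperature with compound in 50 mM sodium acetate pH 5.5, 100 mM NaCl, 0.1% BSA. Reaction ran 1 h at 30° C with 400 micromolar Val-Ser-Gln-Asn-(betanaphthyl)Ala-Pro-Ile-Val substrate and 10 picomolar protease. After phosphoric acid quench, product was measured by C18 HPLC with fluorescence (ex 270/em 330 nm).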

Molecule	IC50 [nM]
COC(=O)N[C@H](C(=O)N[C@H](c1ccc([C@@H](CO)N(CCC(C)(C)C)S(=O)(=O)c2ccn3ncnc3c2)s1)C(F)(F)F)C(c1ccccc1)c1ccccc1 [Example 120, N-[(1S)-1-(5-{(1R)-1-[(3,3-dimethylbutyl)([1,2,4]triazolo[1,5-a]pyridin-7-ylsulfonyl)amino]-2-hydroxyethyl}thiophen-2-yl)-2,2,2-trifluoroethyl]-Nalpha-(methoxycarbonyl)-beta-phenyl-L-phenylalaninamide]	3
COC(=O)N[C@H](C(=O)N[C@H](c1ccc([C@@H](CO)N(CCC(C)(C)C)S(=O)(=O)c2cn3ccnc3cn2)s1)C(F)(F)F)C(c1ccccc1)c1ccccc1 [Example 122, N-[(1S)-1-(5-{(1R)-1-[(3,3-dimethylbutyl)(imidazo[1,2-a]pyrazin-6-ylsulfonyl)amino]-2-hydroxyethyl}thiophen-2-yl)-2,2,2-trifluoroethyl]-Nα-(methoxycarbonyl)-β-phenyl-L-phenylalaninamide]	5.78
COC(=O)N[C@H](C(=O)NCc1ccc([C@@H](CO)N(CC(C)C)S(=O)(=O)c2ccc3ncsc3c2)s1)C(c1ccccc1)c1ccccc1 [Example 123, N-[(5-{(1R)-1-[(1,3-benzothiazol-6-ylsulfonyl)(2-methylpropyl)amino]-2-hydroxyethyl}thiophen-2-yl)methyl]-Nα-(methoxycarbonyl).-β-phenyl-L-phenylalaninamide]	6.3
CC(C)CN(C(CO)c1ccc(CNC(=O)C(NC(=O)c2ccccc2)C(c2ccccc2)c2ccncc2F)s1)S(=O)(=O)c1ccc2ncsc2c1 (centres unmarked) [Example 124, N-[1-[[5-[1-(1,3-benzothiazol-6-ylsulfonyl(isobutyl)amino)-2-hydroxy-ethyl]-2-thienyl]methylcarbamoyl]-2-(3-fluoro-4-pyridyl)-2-phenyl-ethyl]benzamide]	568
CC(C)CN(C(CO)c1ccc(CNC(=O)C(NC(=O)c2ccccc2)C(c2ccccc2)c2ccnc3ccccc23)s1)S(=O)(=O)c1ccc2ncsc2c1 (centres unmarked) [Example 125, N-[1-[[5-[1-(1,3-benzothiazol-6-ylsulfonyl(isobutyl)amino)-2-hydroxy-ethyl]-2-thienyl]methylcarbamoyl]-2-phenyl-2-(4-quinolyl)ethyl]benzamide]	409
CC(C)CN(C(CO)c1ccc(CNC(=O)C(NC(=O)c2ccccc2)C(c2ccccc2)c2c[nH]c3ncccc23)s1)S(=O)(=O)c1ccc2ncsc2c1 (centres unmarked) [Example 126, N-[1[[5-[1-(1,3-benzothiazol-6-ylsulfonyl(isobutyl)amino)-2-hydroxy-ethyl]-2-thienyl]methylcarbamoyl]-2-phenyl-2-(1H-pyrrolo[2,3-b]pyridin-3-yl)ethyl]benzamide]	4
CC(C)CN(C(CO)c1ccc(CNC(=O)C(NC(=O)c2ccccc2)C(c2ccccc2)c2cn(C)c3ccccc23)s1)S(=O)(=O)c1ccc2ncsc2c1 (centres unmarked) [Example 127, N-[1-[[5-[1-(1,3-benzothiazol-6-ylsulfonyl(isobutyl)amino)-2-hydroxy-ethyl]-2-thienyl]methylcarbamoyl]-2-(1-methylindol-3-yl)-2-phenyl-ethyl]benzamide]	8
CC(C)CN(C(CO)c1ccc(CNC(=O)C(NC(=O)c2ccccc2)C(c2ccccc2)c2ccccc2)s1)S(=O)(=O)c1ccc2ncsc2c1 (centres unmarked) [Example 128, N-[1-benzhydryl-2-[[5-[1-(1,3-benzothiazol-6-ylsulfonyl(isobutyl)amino)-2-hydroxy-ethyl]-2-thienyl]methylamino]-2-oxo-ethyl]benzamide]	53
CC(C)CN(C(CO)c1ccc(CNC(=O)C(NC(=O)c2ccccc2)C(c2ccccc2)c2cccc3ccncc23)s1)S(=O)(=O)c1ccc2ncsc2c1 (centres unmarked) [Example 129, N-[1-[[5-[1-(1,3-benzothiazol-6-ylsulfonyl(isobutyl)amino)-2-hydroxy-ethyl]-2-thienyl]methylcarbamoyl]-2-(8-isoquinolyl)-2-phenyl-ethyl]benzamide]	7
CC(C)CN(C(CO)c1ccc(CNC(=O)C(NC(=O)c2ccccc2)C(c2ccccc2)c2c[nH]nc2-c2ccccc2)s1)S(=O)(=O)c1ccc2ncsc2c1 (centres unmarked) [Example 130, N-[1-[[5-[1-(1,3-benzothiazol-6-ylsulfonyl(isobutyl)amino)-2-hydroxy-ethyl]-2-thienyl]methylcarbamoyl]-2-phenyl-2-(3-phenyl-1H-pyrazol-4-yl)ethyl]benzamide]	952
CC(C)CN(C(CO)c1ccc(CNC(=O)C(NC(=O)c2ccccc2)C(c2ccccc2)c2cn[nH]c2)s1)S(=O)(=O)c1ccc2ncsc2c1 (centres unmarked) [Example 131, N-[1-[[5-[1-(1,3-benzothiazol-6-ylsulfonyl(isobutyl)amino)-2-hydroxy-ethyl]-2-thienyl]methylcarbamoyl]-2-phenyl-2-(1H-pyrazol-4-yl)ethyl]benzamide]	79
CC(C)CN(C(CO)c1ccc(CNC(=O)C(NC(=O)c2ccccc2)C(c2ccccc2)c2cnc[nH]2)s1)S(=O)(=O)c1ccc2ncsc2c1 (centres unmarked) [Example 132, N-[1-[[5-[1-(1,3-benzothiazol-6-ylsulfonyl(isobutyl)amino)-2-hydroxy-ethyl]-2-thienyl]methylcarbamoyl]-2-(1H-imidazol-5-yl)-2-phenyl-ethyl]benzamide]	216
CC(C)CN(C(CO)c1ccc(CNC(=O)C(NC(=O)c2ccccc2)C(c2ccccc2)c2cccc3ncccc23)s1)S(=O)(=O)c1ccc2ncsc2c1 (centres unmarked) [Example 133, N-[1-[[5-[1-(1,3-benzothiazol-6-ylsulfonyl(isobutyl)amino)-2-hydroxy-ethyl]-2-thienyl]methylcarbamoyl]-2-phenyl-2-(5-quinolyl)ethyl]benzamide]	4.76
N-{(1S)-1-[5-((1R)-1-{(3,3-dimethylbutyl)[4-(1-methyl-1H-pyrazol-4-ylphenylsulfonyl]amino}-2-hydroxyethyl)-2-thienyl]-2,2,2-trifluoroethyl}-Nα-(methoxycarbonyl)-β-phenyl-L-phenylalaninamide [Example 115]	20.9

— patent publication US9133157B2, “HIV protease inhibitors” (Merck Canada Inc., priority 2011, dated 2015)
